Results from patent US20090023704A1, “Novel Compounds 737” (ASTRAZENECA AB, priority 2007, published 2009).

molecular target: T1, GABAB receptor (GABABR1a/GABABR2 heterodimer) (Homo sapiens, UniProt O75899+Q9UBS5); experiment: [35S]-GTPγS binding assay, potency of PAM (GABA dose-response curves with and without test compound); format: biochemical; details: potency of the positive allosteric modulator; GABA dose-response in presence of test compound
T1 construct: expressed in transfected cells
Outline: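 Membranes from human GABABR1a/GABABR2-expressing cell lines, one with a GABABR1a-Gαqi5mut fusion, were incubated at 30 °C for 45 min, pH 7.4, with 10 μM GDP and 0.53 nM [35S]-GTPγS. GABA (0.1 nM–1 mM) was added with or without PAM, and EC50 was obtained by 4-parameter logistic fit after filtration and scintillation counting.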

T1 sequence (Q9UBS5 15-961 limits assumed): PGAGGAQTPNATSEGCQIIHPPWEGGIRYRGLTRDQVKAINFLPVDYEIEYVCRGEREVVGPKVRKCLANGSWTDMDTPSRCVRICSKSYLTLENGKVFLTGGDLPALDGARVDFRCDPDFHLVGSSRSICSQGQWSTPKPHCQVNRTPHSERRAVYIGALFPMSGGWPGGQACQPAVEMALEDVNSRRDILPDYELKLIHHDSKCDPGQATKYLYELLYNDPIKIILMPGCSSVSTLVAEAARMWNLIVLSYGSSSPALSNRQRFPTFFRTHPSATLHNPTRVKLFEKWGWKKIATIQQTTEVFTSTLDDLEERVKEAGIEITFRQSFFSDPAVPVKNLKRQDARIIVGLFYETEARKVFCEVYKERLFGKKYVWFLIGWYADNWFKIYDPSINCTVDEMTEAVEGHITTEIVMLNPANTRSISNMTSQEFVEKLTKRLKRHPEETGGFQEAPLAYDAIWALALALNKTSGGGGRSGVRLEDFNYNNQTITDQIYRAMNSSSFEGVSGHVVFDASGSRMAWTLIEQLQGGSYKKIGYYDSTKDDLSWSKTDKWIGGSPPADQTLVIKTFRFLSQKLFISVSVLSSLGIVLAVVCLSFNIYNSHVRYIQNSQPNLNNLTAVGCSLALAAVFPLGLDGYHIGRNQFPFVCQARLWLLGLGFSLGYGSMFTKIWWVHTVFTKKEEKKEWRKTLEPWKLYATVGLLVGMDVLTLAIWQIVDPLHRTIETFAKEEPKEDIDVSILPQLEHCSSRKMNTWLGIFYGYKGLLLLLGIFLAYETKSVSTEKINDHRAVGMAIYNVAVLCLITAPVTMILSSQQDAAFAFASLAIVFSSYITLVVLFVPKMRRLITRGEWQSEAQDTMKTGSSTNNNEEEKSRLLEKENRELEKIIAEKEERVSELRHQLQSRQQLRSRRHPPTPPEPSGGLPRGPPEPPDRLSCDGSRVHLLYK
T1 sequence (O75899 42-941): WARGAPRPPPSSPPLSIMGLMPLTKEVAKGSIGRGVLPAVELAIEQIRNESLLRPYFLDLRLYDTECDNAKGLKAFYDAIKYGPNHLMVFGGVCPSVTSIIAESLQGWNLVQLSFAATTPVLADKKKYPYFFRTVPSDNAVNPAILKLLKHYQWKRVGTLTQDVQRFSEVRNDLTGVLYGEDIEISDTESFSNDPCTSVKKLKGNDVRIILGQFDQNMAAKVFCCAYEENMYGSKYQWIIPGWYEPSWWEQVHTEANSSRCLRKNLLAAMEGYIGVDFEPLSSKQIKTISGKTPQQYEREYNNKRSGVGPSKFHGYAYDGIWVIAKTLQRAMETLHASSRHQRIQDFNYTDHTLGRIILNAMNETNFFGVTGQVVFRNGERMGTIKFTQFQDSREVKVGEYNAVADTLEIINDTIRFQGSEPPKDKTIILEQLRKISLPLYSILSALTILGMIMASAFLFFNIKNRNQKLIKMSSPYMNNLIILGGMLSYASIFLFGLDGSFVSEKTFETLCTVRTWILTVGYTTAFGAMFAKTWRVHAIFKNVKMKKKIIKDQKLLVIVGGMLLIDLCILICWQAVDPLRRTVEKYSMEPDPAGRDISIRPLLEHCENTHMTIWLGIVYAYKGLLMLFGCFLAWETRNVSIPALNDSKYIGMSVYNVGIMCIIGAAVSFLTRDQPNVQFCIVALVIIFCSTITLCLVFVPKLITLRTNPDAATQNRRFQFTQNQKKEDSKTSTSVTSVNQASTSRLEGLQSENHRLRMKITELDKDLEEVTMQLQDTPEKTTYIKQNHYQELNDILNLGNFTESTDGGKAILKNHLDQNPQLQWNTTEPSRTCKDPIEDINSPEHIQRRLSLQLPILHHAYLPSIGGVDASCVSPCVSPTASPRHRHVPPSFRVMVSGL

Q: Which EC50 does the source give for `CCCn1c(=O)n(Cc2ccc(Cl)cc2)c(=O)c2c1nc(N1CCC[C@H]1COC)n2C` [Example 93, 1-(4-chlorobenzyl)-8-[(2S)-2-(methoxymethyl)pyrrolidin-1-yl]-7-methyl-3-propyl-3,7-dihydro-1H-purine-2,6-dione] here?
A: 7.2 µM

Q: For `CCCn1c(=O)n(Cc2ccc(Cl)cc2)c(=O)c2c1nc(N1CCC[C@H]1CN1CCCC1)n2C` [Example 94, 1-(4-chlorobenzyl)-7-methyl-3-propyl-8-[(2S)-2-(pyrrolidin-1-ylmethyl)pyrrolidin-1-yl]-3,7-dihydro-1H-purine-2,6-dione], which EC50 is on record?
A: 9 µM

Q: With `CCCn1c(=O)n(Cc2ccc(Cl)cc2)c(=O)c2c1nc(Br)n2C` [Example 95, 8-bromo-1-(4-chlorobenzyl)-7-methyl-3-propyl-3,7-dihydro-1H-purine-2,6-dione] as the compound, how does the EC50 read?
A: 4.5 µM

Q: How did the EC50 turn out when `CCCn1c(=O)n(Cc2ccc(Cl)cc2)c(=O)c2c1nc(C(C)O)n2C` (stereo not shown) [Example 96, 1-(4-chlorobenzyl)-8-(1-hydroxyethyl)-7-methyl-3-propyl-3,7-dihydro-1H-purine-2,6-dione] was run?
A: 12.2 µM
